The values that follow come from ChEMBL document CHEMBL5335847, “Model of P-Glycoprotein Ligand Binding and Validation with Efflux Substrate Matched Pairs” (J Med Chem, 2024).

In one data set the target is P-gp (ABCB1) (Homo sapiens, UniProt P08183). The experiment in a line: Substrate activity at P-gp in human Caco-2 cells assessed as efflux ratio measured for 2 hrs by HPLC analysis. The data set is classed as ADME, cell-based.
A short description of data set [1]: Apparent permeability of the compound across apical to basolateral side in human Caco-2 cells measured for 2 hrs by HPLC analysis. The data set is classed as ADME, cell-based.
The target in another data set is Mu-type opioid receptor (Rattus norvegicus, UniProt P33535). The experiment in a line: Antagonist activity at mu-opioid receptor in rat thalamus membrane assessed as inhibition of DAMGO-stimulated [35S]GTPgammaS binding incubated for 2 hrs by liquid scintillation spectrophotometry. The format is functional, cell membranes.
Mu-type opioid receptor, sequence (P33535 whole entry): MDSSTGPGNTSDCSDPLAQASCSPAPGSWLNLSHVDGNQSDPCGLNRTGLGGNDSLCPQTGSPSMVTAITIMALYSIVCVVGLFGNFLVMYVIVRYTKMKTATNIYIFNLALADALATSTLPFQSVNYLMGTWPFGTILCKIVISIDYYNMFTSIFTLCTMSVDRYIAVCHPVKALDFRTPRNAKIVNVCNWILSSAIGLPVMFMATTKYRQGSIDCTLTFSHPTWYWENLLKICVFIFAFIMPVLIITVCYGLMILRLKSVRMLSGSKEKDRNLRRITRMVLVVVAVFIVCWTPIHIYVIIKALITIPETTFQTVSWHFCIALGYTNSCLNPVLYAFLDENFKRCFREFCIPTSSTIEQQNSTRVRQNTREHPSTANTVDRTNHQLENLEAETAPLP

P-gp (ABCB1), sequence (P08183 whole entry): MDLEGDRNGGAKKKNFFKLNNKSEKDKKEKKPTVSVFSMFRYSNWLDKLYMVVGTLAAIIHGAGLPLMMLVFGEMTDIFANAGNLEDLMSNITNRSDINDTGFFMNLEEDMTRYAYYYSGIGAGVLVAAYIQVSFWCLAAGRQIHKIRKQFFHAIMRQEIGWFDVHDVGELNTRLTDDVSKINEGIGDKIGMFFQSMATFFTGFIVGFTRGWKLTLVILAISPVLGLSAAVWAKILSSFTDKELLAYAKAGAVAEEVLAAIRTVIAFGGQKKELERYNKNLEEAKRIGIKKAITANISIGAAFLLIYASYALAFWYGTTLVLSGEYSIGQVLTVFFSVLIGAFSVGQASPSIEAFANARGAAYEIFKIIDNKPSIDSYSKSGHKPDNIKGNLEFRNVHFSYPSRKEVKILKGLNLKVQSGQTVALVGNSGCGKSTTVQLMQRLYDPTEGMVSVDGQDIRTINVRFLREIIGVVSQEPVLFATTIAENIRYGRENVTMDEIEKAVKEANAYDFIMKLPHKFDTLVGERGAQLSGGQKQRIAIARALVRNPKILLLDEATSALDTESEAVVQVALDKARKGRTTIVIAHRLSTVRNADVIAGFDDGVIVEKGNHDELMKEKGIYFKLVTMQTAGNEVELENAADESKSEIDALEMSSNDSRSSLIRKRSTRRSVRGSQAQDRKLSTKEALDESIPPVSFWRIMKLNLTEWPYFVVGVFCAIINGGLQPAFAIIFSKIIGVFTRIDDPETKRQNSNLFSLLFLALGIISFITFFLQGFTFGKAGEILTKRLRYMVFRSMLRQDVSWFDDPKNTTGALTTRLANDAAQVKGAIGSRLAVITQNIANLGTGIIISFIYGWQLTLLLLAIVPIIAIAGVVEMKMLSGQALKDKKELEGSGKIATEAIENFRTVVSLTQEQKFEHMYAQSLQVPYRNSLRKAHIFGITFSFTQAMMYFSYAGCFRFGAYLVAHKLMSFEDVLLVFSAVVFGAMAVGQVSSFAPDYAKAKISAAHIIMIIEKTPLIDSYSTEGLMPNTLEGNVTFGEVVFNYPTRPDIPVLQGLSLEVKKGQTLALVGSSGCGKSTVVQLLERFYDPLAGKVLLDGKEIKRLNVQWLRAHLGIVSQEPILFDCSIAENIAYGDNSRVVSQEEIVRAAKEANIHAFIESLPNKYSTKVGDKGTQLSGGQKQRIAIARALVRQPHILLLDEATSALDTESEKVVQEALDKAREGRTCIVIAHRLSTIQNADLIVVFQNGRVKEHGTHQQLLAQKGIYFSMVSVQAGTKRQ

Consider `O=C(N[C@@H]1CC[C@@]2(O)[C@H]3Cc4ccc(O)c5c4[C@@]2(CCN3CC2CC2)[C@H]1O5)c1ccncc1`, for which, at P-gp (ABCB1), the efflux ratio at 2 h is above 10. Also, the Papp A→B at 2 h in data set [1] is below 0.7 ×10⁻⁶ cm/s. Further, the Ki at Mu-type opioid receptor was found to be 4.8 nM.
The like results for `O=C(N[C@@H]1CC[C@@]2(O)[C@H]3Cc4ccc(O)c5c4[C@@]2(CCN3CC2CC2)[C@H]1O5)c1cc2ccccc2cn1` were, in that order, 1.3, 3 ×10⁻⁶ cm/s and 3.5 nM.
